The results in this text go back to PubChem BioAssay (NCI).

Some test systems named below: ACHN renal; HCT-116 colon; MOLT-4 leukemia; OVCAR-5 ovarian; RPMI-8226 leukemia; SF-295 CNS; SR leukemia; SW-620 colon; TK-10 renal; UACC-62 melanoma.
Experiment in all cases: NCI tumour cell line growth inhibition, 48 h

“And” between values parts separate entries of the source, which are not always exact repeats. Equal values may be shown once.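 Interpolation was linear, between the two tested concentrations surrounding the appropriate level; five concentrations were tested over 48 hours in 96-well plates. Here, GI50 denotes the concentration required for 50% inhibition of growth. TGI marks complete inhibition of growth.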 A value given as a limit tells only on which side of the number the result lay.

Take `O=C1/C(=C\C(Cl)=C/c2ccc([N+](=O)[O-])cc2)SC(=S)N1CCc1ccc(O)cc1`: the GI50 was 0.249 µM in the assay on ACHN renal; 0.201 µM with HCT-116 colon; 0.352 µM in the assay on MOLT-4 leukemia; 0.447 µM with OVCAR-5 ovarian; 0.268 µM in the assay on RPMI-8226 leukemia; 0.501 µM in the assay on SF-295 CNS. Moreover, the GI50 in the assay with SR leukemia was 0.327 µM; in the assay with SW-620 colon, 0.324 µM; with TK-10 renal it was 1.53 µM; in the assay on UACC-62 melanoma, 0.566 µM. For the same molecule, the TGI is 0.584 µM with ACHN renal; 0.455 µM in the assay with HCT-116 colon; greater than 100 µM in the assay on MOLT-4 leukemia; 1.53 µM in the assay on OVCAR-5 ovarian; 0.884 µM in the assay with RPMI-8226 leukemia; 1.06 µM in the assay with SF-295 CNS. Also, the TGI in the assay on SW-620 colon turned out to be 1.26 µM; in the assay with TK-10 renal, 3.25 µM; with UACC-62 melanoma, 1.86 µM.

With `Clc1cc(Cl)c(Cl)c(-c2nc(-c3cccnc3)cs2)c1`, the GI50 in the assay on ACHN renal is 22.2 µM; with HCT-116 colon, 5.3 µM; in the assay with MOLT-4 leukemia it was 39.1 µM; with OVCAR-5 ovarian, 32.3 µM; with RPMI-8226 leukemia, 17.9 µM; in the assay on SF-295 CNS it was 26.2 µM. For the same molecule, the GI50 in the assay with SR leukemia is greater than 100 µM; in the assay on SW-620 colon, 9.34 µM; in the assay with TK-10 renal, 20.5 µM; in the assay with UACC-62 melanoma, 24 µM. For the same molecule, the TGI is 72.3 µM in the assay on ACHN renal; greater than 100 µM in the assay with HCT-116 colon; greater than 100 µM in the assay with MOLT-4 leukemia; 92.8 µM in the assay on OVCAR-5 ovarian; 80.8 µM in the assay with RPMI-8226 leukemia; 70.4 µM in the assay with SF-295 CNS. The TGI was greater than 100 µM in the assay with SR leukemia, 23.6 µM in the assay on SW-620 colon, 56.6 µM in the assay with TK-10 renal and 73.3 µM in the assay on UACC-62 melanoma.

As for `C=C1C(=O)O[C@@H]2C(=O)[C@@H](C)[C@@H]3C=CC(=O)[C@@]3(C)[C@@H](OC(=O)/C(C)=C\C)[C@H]12`, the TGI in the assay on ACHN renal was 0.609 µM; with HCT-116 colon it was 0.681 µM; with MOLT-4 leukemia it was 2.65 µM; in the assay with OVCAR-5 ovarian it was 4.69 µM; in the assay with RPMI-8226 leukemia, 1.25 µM; in the assay with SF-295 CNS it was 27.4 µM. Further, the TGI in the assay with SR leukemia is 0.712 µM; in the assay with SW-620 colon it was 1.76 µM; with TK-10 renal, 1.74 µM; with UACC-62 melanoma, 2.95 µM.

On to `S=c1nc2[nH]ncc2c(N/N=C/c2ccccc2)[nH]1`, for which the GI50 is 63.3 µM with ACHN renal; 87.9 µM in the assay with HCT-116 colon; greater than 100 µM in the assay with MOLT-4 leukemia; greater than 100 µM in the assay with OVCAR-5 ovarian; 60.6 µM in the assay with RPMI-8226 leukemia; greater than 100 µM with SF-295 CNS. Also, the GI50 with SR leukemia is greater than 100 µM; in the assay with SW-620 colon, greater than 100 µM; with TK-10 renal it was greater than 100 µM; with UACC-62 melanoma, 72.7 µM. In addition, the TGI in the assay with ACHN renal, with HCT-116 colon, with MOLT-4 leukemia, in the assay with OVCAR-5 ovarian, with RPMI-8226 leukemia and in the assay on SF-295 CNS was greater than 100 µM in each case. The TGI with SR leukemia, in the assay with SW-620 colon, in the assay on TK-10 renal and with UACC-62 melanoma was greater than 100 µM each time.

Regarding `CNNCc1ccc(C(=O)NC(C)C)cc1`, the TGI in the assay with ACHN renal was greater than 500 µM; with HCT-116 colon, greater than 500 µM; with MOLT-4 leukemia, 426 µM and > 500 µM; in the assay with OVCAR-5 ovarian, greater than 500 µM; in the assay on RPMI-8226 leukemia, greater than 500 µM; with SF-295 CNS, greater than 500 µM. Further, the TGI in the assay on SR leukemia was greater than 375 µM; with SW-620 colon, greater than 500 µM; with TK-10 renal, greater than 500 µM; in the assay with UACC-62 melanoma it was 393 µM and > 500 µM. Also, the GI50 with MOLT-4 leukemia, with OVCAR-5 ovarian and in the assay with UACC-62 melanoma was greater than 500 µM throughout.

For `O=C(Nc1ccccc1)Nc1cccc(-n2cc(-c3ccncc3)c(-c3ccc(O)c(Cl)c3)n2)c1`, the GI50 in the assay with ACHN renal was 2.95 µM; with HCT-116 colon, 3.41 µM; in the assay with MOLT-4 leukemia it was 2.92 µM; in the assay on OVCAR-5 ovarian it was 5.39 µM; in the assay on RPMI-8226 leukemia it was 2.35 µM; with SF-295 CNS, 2.1 µM. For the same molecule, the GI50 is 2.35 µM in the assay on SR leukemia, 3.67 µM in the assay on SW-620 colon, 6.91 µM in the assay with TK-10 renal and 3.73 µM with UACC-62 melanoma. Further, the TGI with ACHN renal is 34.7 µM; with HCT-116 colon it was 13.9 µM; in the assay on MOLT-4 leukemia, 9.03 µM; in the assay on OVCAR-5 ovarian, 31.5 µM; with RPMI-8226 leukemia it was 6.13 µM; in the assay on SF-295 CNS it was 4.73 µM. In addition, the TGI in the assay with SR leukemia was 6.29 µM; in the assay on SW-620 colon, 38.4 µM; in the assay with TK-10 renal, 54.6 µM; in the assay on UACC-62 melanoma, 15.5 µM.

As to `O=[N+]([O-])c1cc(CCl)ccc1CCl`, the TGI with ACHN renal was 3.09 µM; in the assay on HCT-116 colon, 3.26 µM; in the assay with MOLT-4 leukemia, 12.6 µM; with OVCAR-5 ovarian, 6.18 µM; with RPMI-8226 leukemia it was 3.91 µM; in the assay with SF-295 CNS, 19.7 µM. Further, the TGI was 5.17 µM in the assay on SR leukemia, 4.54 µM with SW-620 colon, 8.23 µM in the assay on TK-10 renal and 11.4 µM in the assay with UACC-62 melanoma.

Regarding `N#CC(=S)Nc1ccc(Cl)c(Cl)c1`, the TGI was 82.5 µM in the assay on ACHN renal; greater than 50 µM with HCT-116 colon; 43.5 µM in the assay on MOLT-4 leukemia; 55.9 µM in the assay on OVCAR-5 ovarian; 13.4 µM with RPMI-8226 leukemia; 57.8 µM in the assay with SF-295 CNS. In addition, the TGI in the assay on SR leukemia is 67.4 µM; with SW-620 colon, greater than 100 µM; in the assay with TK-10 renal it was greater than 84.6 µM; in the assay on UACC-62 melanoma, 34.1 µM.

For `COc1cc(C#N)cc(OC)c1OCCOCCOc1c(OC)cc(C#N)cc1OC`, the GI50 with ACHN renal is greater than 100 µM; with HCT-116 colon, greater than 100 µM; in the assay with MOLT-4 leukemia it was 21.3 µM; in the assay with OVCAR-5 ovarian it was greater than 100 µM; with RPMI-8226 leukemia, 29.9 µM; with SF-295 CNS, 84.9 µM. Moreover, the GI50 with SR leukemia was 4.33 µM; in the assay on SW-620 colon, greater than 100 µM; with TK-10 renal, greater than 100 µM; in the assay on UACC-62 melanoma, 33.1 µM. Also, the TGI in the assay on ACHN renal, in the assay on HCT-116 colon, in the assay on MOLT-4 leukemia, with OVCAR-5 ovarian, with RPMI-8226 leukemia and with SF-295 CNS was greater than 100 µM each time. For the same molecule, the TGI with SR leukemia, with SW-620 colon, with TK-10 renal and in the assay with UACC-62 melanoma was greater than 100 µM each time.
